Seven compounds from US20250228851A1, “ALLOSTERIC INHIBITOR COMPOUNDS FOR OVERCOMING CANCER RESISTANCE” (priority 2021, published 2025) can be followed below.

Entries after “also recorded” stand apart in the source; their conditions may differ.

For one data set, the system named is HP (Ph− ALL PD-LTC). Briefly: XTT cell viability, PD-LTC HP. To be noted: increasing concentration up to 10 μM.
A further data set deals with BV (Ph+ ALL PD-LTC). Briefly: XTT cell viability, PD-LTC BV. Format: cell-based, human. As to conditions: for antiproliferative response (in words): increasing concentration 0.5-10 μM; for induction of cell proliferation at high concentration (in words): concentration >5 μM (10 μM).
A further data set relates to PH (Ph+ ALL PD-LTC). Briefly: XTT cell viability, PD-LTC PH. As to conditions: for antiproliferative response (in words): increasing concentration 0.5-10 μM.
Data set [1] deals with Ba/F3 cells expressing p185-BCR-ABL. As to the kind of experiment: XTT cell viability / proliferation, Ba/F3 expressing p185-BCR-ABL. As to conditions: p185-BCR-ABL-Ba/F3, increasing concentration up to 10 μM. Format: cell-based, murine. The procedure: (§1) • 1. Ba/F3 cells were obtained from the German Collection of Microorganisms and Cell Cultures (DSMZ, Braunschweig, Germany) and maintained in RPMI 1640 medium supplemented with 10% fetal calf serum (Invitrogen) containing 10 ng/ml of interleukin-3 (Cell Concepts, Umkirch, Germany). Ecotropic Phoenix cells and Rat-1 cells were cultured in Dulbecco's modified Eagle's medium supplemented with 10% fetal calf serum. GNF-2 (Sigma-Adrich, Steinheim, Germany) was dissolved in dimethyl sulfoxide and added at a final concentration of […]. Cell growth was assessed by dye exclusion using Trypan blue. Proliferation was assessed using the XTT proliferation kit (Roche, Mannheim, Germany), according to the manufacturer's instructions. • 2. Ba/F3: IL-3 dependent lymphatic murine pro B cell line. Ba/F3 cells expressing either p185-BCR-ABL1 (p185-BCR-ABL-Ba/F3) or p210-BCR-ABL (p210-BCR-ABL-Ba/F3). p185-BCR-ABL1 (activated kinases substitute for the IL-3 signaling and therefore render the cells IL3 independent. Ba/F3 cells expressing either p185-BCR-ABL (p185-Ba/F3) or p210-BCR-ABL (p210-Ba/F3). Ba/F3 cells obtained from the German Collection of Microorganisms and Cell Cultures (DSMZ, Braunschweig, Germany). • 3. Mutant transduced Ba/F3 cells (T315I-p185-BCR-ABL1 or T315I-p210-BCR-ABL1): Ba/F3 cells expressing either the mutated forms T315I-p185-BCR-ABL1 or T315I-p210-BCR-ABL1. • 4. WT-Sup-B15: A Ph+ ALL cell line harboring the p185-BCR-ABL. Sup-B15: established from the bone marrow of a child with acute lymphoblastic leukemia (B cell precursor ALL) in second relapse in 1984; described in the literature to carry the ALL-variant (m-BCR) of the BCR-ABL1 fusion gene (e1-a2) correct, because it results in the p185-BCR-ABL version. • 5. […] V617FJAK2 HEL: (Human erythroleukemia) is a growth factor independent erythroleukemic cell line established from the bone marrow of a patient with relapsed Hodgkin disease after autologous bone marrow transplantation (Martin P & Papayannopoulou T: Science 1982; 216:1233-1235). HEL cells display a block in differentiation at the level of common erythroid-megakaryocytic progenitor and have been commonly used as a model to study erythroid and megakaryocytic differentiation. • 7. Jurkat: an immortalized human T lymphocyte first derived from the peripheral blood of a child suffering from T cell leukemia. Jurkat cells are used to study acute T cell leukemia, T cell signaling, and the expression of various chemokine receptors susceptible to viral entry, particularly HIV.
(§2) FIGS. 1A and 1B: Effects of Compound 16 on Ba/F3 cells expressing either p185-BCR-ABL or T315I-p185-BCR-ABL. Cells were exposed to increasing concentration of Compound 16 [empty vehicle (0.0 μM+IL3), 2.5, 5.0 and 10.0 μM]. […] Cell viability (CV) was assessed using the XTT method as described in the experimental part. The means±SD of triplicates from one representative experiment out of three performed are given.
(§3) FIGS. 7A-C: Effects of Compound 16 on of Ba/F3 cells expressing WT-p185-BCR-ABL (FIG. 7A) and the mutant gatekeeper T315I-p185-BCR-ABL (FIG. 7B) by Compound 16. Cells were exposed to increasing concentrations of Compound 16.

The test system of data set [2] is Ba/F3 cells expressing T315I-p185-BCR-ABL. Briefly: XTT cell viability / proliferation, Ba/F3 expressing T315I-p185-BCR-ABL. Format: cell-based, murine. As to conditions: for antiproliferative response (in words): T315I-p185-BCR-ABL-Ba/F3, increasing concentration up to 10 μM. The method, then: as §1, §2, §3
The test system of data set [3] is PINCO transfected Ba/F3 cells. As to the kind of experiment: XTT cell viability, Ba/F3 transduced with empty vector (PINCO). It is filed as cell-based, murine. To be noted: increasing concentration up to 10 μM. The procedure: (§4) • 1. Ba/F3 cells were obtained from the German Collection of Microorganisms and Cell Cultures (DSMZ, Braunschweig, Germany) and maintained in RPMI 1640 medium supplemented with 10% fetal calf serum (Invitrogen) containing 10 ng/ml of interleukin-3 (Cell Concepts, Umkirch, Germany). Ecotropic Phoenix cells and Rat-1 cells were cultured in Dulbecco's modified Eagle's medium supplemented with 10% fetal calf serum. GNF-2 (Sigma-Adrich, Steinheim, Germany) was dissolved in dimethyl sulfoxide and added at a final concentration of […]. Cell growth was assessed by dye exclusion using Trypan blue. Proliferation was assessed using the XTT proliferation kit (Roche, Mannheim, Germany), according to the manufacturer's instructions. • 2. Ba/F3: IL-3 dependent lymphatic murine pro B cell line. Ba/F3 cells expressing either p185-BCR-ABL1 (p185-BCR-ABL-Ba/F3) or p210-BCR-ABL (p210-BCR-ABL-Ba/F3). p185-BCR-ABL1 (activated kinases substitute for the IL-3 signaling and therefore render the cells IL3 independent. Ba/F3 cells expressing either p185-BCR-ABL (p185-Ba/F3) or p210-BCR-ABL (p210-Ba/F3). Ba/F3 cells obtained from the German Collection of Microorganisms and Cell Cultures (DSMZ, Braunschweig, Germany). • 3. Mutant transduced Ba/F3 cells (T315I-p185-BCR-ABL1 or T315I-p210-BCR-ABL1): Ba/F3 cells expressing either the mutated forms T315I-p185-BCR-ABL1 or T315I-p210-BCR-ABL1. • 4. WT-Sup-B15: A Ph+ ALL cell line harboring the p185-BCR-ABL. Sup-B15: established from the bone marrow of a child with acute lymphoblastic leukemia (B cell precursor ALL) in second relapse in 1984; described in the literature to carry the ALL-variant (m-BCR) of the BCR-ABL1 fusion gene (e1-a2) correct, because it results in the p185-BCR-ABL version. • 5. […]
FIG. 11: Antiproliferative effect of Compound 16 on PINCO transfected Ba/F3 cells. […] Proliferation status was determined by the metabolic activity of cells given by the reduction rate of XTT to formazan. […]

The next data set concerns Jurkat. Briefly: XTT cell viability, Jurkat. Format: cell-based, human. As to conditions: increasing concentration up to 10 μM. The method, then: as §4
FIG. 2: Effect of Compound 16 on leukemia cell lines (Jurkat, Sup-B15 and BV173). Cell viablility (CV) was determined following incubation of the 1 m cells/ml of each cell line with increasing concentration of the Compound 16 [empty vehicle (0.0 μM+IL3), 2.5, 5.0 and 10.0 μM]. CV was measured by the XTT method. […]

A further data set deals with Sup-B15 (p185-BCR-ABL). As to the kind of experiment: XTT cell viability, Sup-B15 (WT-Sup-B15). It is filed as cell-based, human. The method, then: as §1
FIG. 2: Effect of Compound 16 on leukemia cell lines (Jurkat, Sup-B15 and BV173). Cell viablility (CV) was determined following incubation of the 1 m cells/ml of each cell line with increasing concentration of the Compound 16 [empty vehicle (0.0 μM+IL3), 2.5, 5.0 and 10.0 μM]. CV was measured by the XTT method. The means±SD of triplicates from one representative experiment out of three performed are given.

The test system of another data set is RT-Sup-B15. As to the kind of experiment: XTT cell viability, RT-Sup-B15. Format: cell-based, human. As to conditions: RT-Sup-B15, increasing concentration up to 10 μM. The procedure: (§5) • 1. Ba/F3 cells were obtained from the German Collection of Microorganisms and Cell Cultures (DSMZ, Braunschweig, Germany) and maintained in RPMI 1640 medium supplemented with 10% fetal calf serum (Invitrogen) containing 10 ng/ml of interleukin-3 (Cell Concepts, Umkirch, Germany). Ecotropic Phoenix cells and Rat-1 cells were cultured in Dulbecco's modified Eagle's medium supplemented with 10% fetal calf serum. GNF-2 (Sigma-Adrich, Steinheim, Germany) was dissolved in dimethyl sulfoxide and added at a final concentration of […]. Cell growth was assessed by dye exclusion using Trypan blue. Proliferation was assessed using the XTT proliferation kit (Roche, Mannheim, Germany), according to the manufacturer's instructions. • 2. Ba/F3: IL-3 dependent lymphatic murine pro B cell line. […]

Data set [4] has as its system KÖ (Ph+T315I-p185-BCR-ABL ALL). Briefly: XTT cell viability, PD-LTC KÖ. Format: cell-based, human.
The next data set relates to Ph− V617FJAK2 HEL. Briefly: XTT cell viability, HEL. As to conditions: increasing concentration up to 10 μM. It is filed as cell-based, human. The method, then:
as §5

Data set [5] has as its system SATA5, pSTAT5, JAK2 and pJAK2. Briefly: Western blotting of HEL cells. Format: cell-based, human. As to conditions: 500 nM. The method, then:
FIG. 40: Western blot analysis of HEL cells using antibodies directed against the indicated proteins. Cells were exposed to increasing concentration of Compound 34 [vehicle (0.0 nM), 50, 100.0, 500.0, 1000.0, and 5000.0 nM].
Cells were harvested at the corresponding time intervals (0, 3, 6, 12, and 14 hours) on HELL cells. Anti-STAT5, anti-pSTAT5, anti-JAK2 and anti-pJAK2 antibodies were used.

Method for HP (Ph− ALL PD-LTC): (§6) Each tested compound was dissolved in a suitable vehicle and cells were exposed to successive solutions containing an increasing concentration of each test compound, as well as a control sample containing no test compound. A range of 5 (or 10) concentrations were tested in triplicates starting from 1 μM. The potency of each test compound was assessed by cell viability using an XTT assay [53, 54]. The ratio of cell viability (CV %) was determined by calculating the average of each triplicate, normalizing to the average in case to the average of the control sample.
(§7) Standard deviation (STD) was calculated for each triplicate and the curve logarithmic equation was calculated for each curve.
(§8) Each compound was assayed against a panel of Patient-Derived Long-Term cultures (PD-LTCs) including: • 8. […] PH: primary Patient-Derived Long-Term Cultures (PD-LTCs) from Ph^+ ALL patients Ph+ ALL (p185-BCR-ABL) that are fully responsive to TKIs ˜30% of adult ALL patients harbor the Ph chromosome, that represent a high-risk group of ALL. • 10. […] HP: PD-LTCs derived from Ph− ALL patient (not harboring the Ph chromosome). HP was used as negative control. • 12. VM: derived from a Ph+ ALL patient harboring p210-BCR-ABL. • 13.
(§9) The dose-response curves for single agent treatments were generated in Prism 9 (GraphPad). Curve fitting was performed by nonlinear regression using the log(inhibitor) vs. normalized response—Variable slope model.
Method for PH (Ph+ ALL PD-LTC): as §6, §7, §8, §9

Take `O=C(Nc1ccc(OC(F)(F)Cl)cc1)c1cnc(N2CC[C@@H](O)C2)c(-c2cc[nH]n2)c1` [ABL001, Asciminib, reference compound]: in the data set with HP (Ph− ALL PD-LTC), the “antiproliferative response (in words)” value is listed as “irresponsiveness”.
With `Cc1ccc(NC(=O)c2ccc(CN3CCN(C)CC3)cc2)cc1Nc1nccc(-c2cccnc2)n1` [Imatinib, reference compound], the “antiproliferative response (in words)” value in the data set on HP (Ph− ALL PD-LTC) is given as “irresponsiveness”.
Take `COc1ccc(C(=O)N2CCN(c3cc(Nc4ccc(OC(F)(F)F)cc4)ncn3)CC2)c(OC)c1` [Compound 32]: the “antiproliferative response (in words)” value in the data set on BV (Ph+ ALL PD-LTC) was “enhanced activity; also recorded: milder”; with PH (Ph+ ALL PD-LTC), “enhanced activity; also recorded: good inhibitory effect”.
Turning to `Cc1cn(-c2cc(NC(=O)c3ccc(C)c(Nc4nccc(-c5cccnc5)n4)c3)cc(C(F)(F)F)c2)cn1` [Nilotinib, reference compound], the “antiproliferative response (in words)” value with HP (Ph− ALL PD-LTC) is listed as “irresponsiveness”.
Consider `CS(=O)(=O)N1CCN(c2cc(Nc3ccc(OC(F)(F)F)cc3)ncn2)CC1` [Compound 30], for which the “antiproliferative response (in words)” value in data set [1] is given as “increased sensitivity”; in data set [2], “concentration dependent inhibition; also recorded: weakly responsive”; in data set [3], “weakly responsive”; with Jurkat, “irresponsive”; in the data set on Sup-B15 (p185-BCR-ABL) (Sup-B15 / WT-Sup-B15, increasing concentration up to 10 μM), “responsive; also recorded: twice as sensitive; also recorded: increased sensitivity”; in the data set on RT-Sup-B15, “irresponsive; also recorded: weakly responsive”. In addition, the “antiproliferative response (in words)” value with BV (Ph+ ALL PD-LTC) is reported as “increased sensitivity”; in data set [4] (increasing concentration up to 10 μM), “weak inhibition is noticed at concentration that ranges between 2.5-10 μM; also recorded: negligible at low concentrations (<1 μM)”; in the data set on Ph− V617FJAK2 HEL, “weakly responsive; also recorded: negligible at low concentrations (<1 μM); also recorded: weak inhibition is noticed at concentration that ranges between 2.5-10 μM”; in the data set on PH (Ph+ ALL PD-LTC), “increased sensitivity; also recorded: PH>BV”. The “cell viability (CV) at plateau” value in data set [2] (4 and 10.0 μM) is around 16%.
Regarding `O=C(c1cccc(-c2cc(Nc3ccc(OC(F)(F)F)cc3)ncn2)c1)N1CCN(c2ccc(C(F)(F)F)cn2)CC1` [Compound 34], the “antiproliferative response (in words)” value is given as “most sensitive” in [1]; “least responsive; also recorded: irresponsive” in data set [2]; “intermediately responsive; also recorded: next in response” in data set [3]; “irresponsive; also recorded: negligible” in the data set with Jurkat; “irresponsive; also recorded: negligible” in the data set with RT-Sup-B15; “more effective in inhibiting the proliferation BV than KÖ” in the data set with BV (Ph+ ALL PD-LTC). Further, the results for the “antiproliferative response (in words)” value in the data set on PH (Ph+ ALL PD-LTC) and in the data set on HP (Ph− ALL PD-LTC) were “most responsive; also recorded: twice as sensitive” and “highly resistant; also recorded: negligible; also recorded: some response at higher doses”, respectively. Further, the IC50 turned out to be 28600 nM with Sup-B15 (p185-BCR-ABL) (WT-Sup-B15, Table 1); 450 nM in the data set on BV (Ph+ ALL PD-LTC) (Table 1); 2370 nM in [4] (Table 1); 130 nM in the data set with PH (Ph+ ALL PD-LTC) (Table 1). Besides, in data set [5], the “level of expression of SATA5, pSTAT5, JAK2 and pJAK2 (in words)” value is “reduction in the level of expression”.
Regarding `Cc1ccc(S(=O)(=O)N2CCN(c3cc(Nc4ccc(OC(F)(F)F)cc4)ncn3)CC2)cc1` [Compound 31], the “antiproliferative response (in words)” value in [1] is “negligible”; in data set [2] it was “negligible”; in the data set on BV (Ph+ ALL PD-LTC), “significantly inhibited; also recorded: increased sensitivity; also recorded: enhanced activity”; in the data set on Ph− V617FJAK2 HEL it was “negligible”; with PH (Ph+ ALL PD-LTC), “significantly inhibited; also recorded: increased sensitivity; also recorded: enhanced activity”; in the data set with HP (Ph− ALL PD-LTC) it was “negligible”. Besides, the “induction of cell proliferation at high concentration (in words)” value with BV (Ph+ ALL PD-LTC) is “induction of cell proliferation; also recorded: growth induction”; in the data set on BV (Ph+ ALL PD-LTC) (listed as −31), “growth induction”; in the data set on PH (Ph+ ALL PD-LTC) (concentration >5 μM (10 μM)), “induction of cell proliferation; also recorded: growth induction”.
